The results in this text go back to US20110105493A1, “HETEROCYCLYL SUBSTITUTED ARYLINDENOPYRIMIDINES AND THEIR USE AS HIGHLY SELECTIVE ADENOSINE A2a RECEPTOR ANTAGONISTS” (priority 2009, published 2011).

The target of experiment [1] is T1, human adenosine A1 receptor (Homo sapiens, UniProt P30542).
T1 construct: expressed in transfected cells; host or cells: CHO-K1 cells with a cAMP inducible beta-galactosidase reporter gene
T1 sequence (P30542 1-326): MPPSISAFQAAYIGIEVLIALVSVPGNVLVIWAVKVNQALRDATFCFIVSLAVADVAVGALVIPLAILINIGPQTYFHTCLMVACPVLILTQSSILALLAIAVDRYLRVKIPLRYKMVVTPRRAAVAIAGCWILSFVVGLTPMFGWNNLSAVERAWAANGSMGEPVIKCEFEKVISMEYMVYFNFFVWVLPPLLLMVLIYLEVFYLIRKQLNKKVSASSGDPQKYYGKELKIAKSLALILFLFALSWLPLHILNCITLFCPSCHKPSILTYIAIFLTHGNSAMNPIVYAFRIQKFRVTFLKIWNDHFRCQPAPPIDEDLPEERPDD
Nature of the experiment: Adenosine A1 Receptor Functional Assay (A1GAL2). Conditions: CHO-K1 cells overexpressing human A1 receptor, cAMP inducible beta-galactosidase reporter, 4 nM r-PIA/1 uM Forskolin agonist challenge. The experiment is classed as cell-based. The procedure: Adenosine A1 Receptor Functional Assay (A1GAL2)
To initiate the functional assay, cryopreserved CHO—K1 cells overexpressing the human adenosine A1 receptor and containing a cAMP inducible beta-galactosidase reporter gene were thawed, centrifuged, DMSO containing media removed, and then seeded with fresh culture media into clear 384-well tissue culture treated plates (BD #353961) at a concentration of 10K cells/well. Prior to assay, these plates were cultured for two days at 37° C., 5% CO2, 90% Rh. On the day of the functional assay, culture media was removed and replaced with 45 μL assay medium (Hams/F-12 Modified (Mediatech # 10-080CV) supplemented w/0.1% BSA). Test compounds were diluted and 11 point curves created at a 1000× concentration in 100% DMSO. Immediately after addition of assay media to the cell plates, 50 nL of the appropriate test compound antagonist or agonist control curves were added to cell plates using a Cartesian Hummingbird. Compound curves were allowed to incubate at room temperature on cell plates for approximately 15 minutes before addition of a 4 nM r-PIA (Sigma P4532)/1 uM Forskolin (Sigma F3917) agonist challenge (5 μL volume). A control curve of r-PIA in1 uM Forskolin, a DMSO/Media control, and a single dose of Forskolin were also included on each plate. After additions, cell plates were allowed to incubate at 37° C., 5% CO2, 90% Rh for 5.5-6 hours. After incubation, media was removed, and cell plates were washed 1×50 μL with DPBS w/o Ca & Mg (Mediatech 21-031-CV). Into dry wells, 20 μL of 1×Reporter Lysis Buffer (Promega E3971 (diluted in dH2O from 5× stock)) was added to each well and plates frozen at −20° C. overnight. For β-galactosidase enzyme colorimetric assay, plates were thawed out at room temperature and 20 μL 2×assay buffer (Promega) was added to each well. Color was allowed to develop at 37° C., 5% CO2, 90% Rh for 1-1.5 h or until reasonable signal appeared. The colorimetric reaction was stopped with the addition of 60 μL/well 1M sodium carbonate. Plates were counted at 405 nm on a SpectraMax Microplate Reader (Molecular Devices). Data was analyzed in Microsoft Excel and IC/EC50 curves were fit using a standardized macro.

Experiment [2] concerns the target T2, human adenosine A2A receptor (Homo sapiens, UniProt P29274).
T2 construct: expressed in transfected cells; host or cells: CHO-K1 cells with a cAMP inducible beta-galactosidase reporter gene
Nature of the experiment: Adenosine A2A Receptor Functional Assay (A2A GAL2). As to conditions: for IC50: CHO-K1 cells overexpressing human A2A receptor, cAMP inducible beta-galactosidase reporter, 15 nM NECA agonist challenge, read-out: A2AGal2; for A1/A2A: ratio of A1Gal2 to A2AGal2 values. Type of experiment: cell-based. The procedure:
Adenosine A2A Receptor Functional Assay (A2A GAL2)
To initiate the functional assay, cryopreserved CHO—K1 cells overexpressing the human adenosine A2A receptor and containing a cAMP inducible beta-galactosidase reporter gene were thawed, centrifuged, DMSO containing media removed, and then seeded with fresh culture media into clear 384-well tissue culture treated plates (BD #353961) at a concentration of 10K cells/well. Prior to assay, these plates were cultured for two days at 37° C., 5% CO2, 90% Rh. On the day of the functional assay, culture media was removed and replaced with 45 μL assay medium (Hams/F-12 Modified (Mediatech # 10-080CV) supplemented w/0.1% BSA). Test compounds were diluted and 11 point curves created at a 1000× concentration in 100% DMSO. Immediately after addition of assay media to the cell plates, 50 nL of the appropriate test compound antagonist or agonist control curves were added to cell plates using a Cartesian Hummingbird. Compound curves were allowed to incubate at room temperature on cell plates for approximately 15 minutes before addition of a 15 nM NECA (Sigma E2387) agonist challenge (5 μL volume). A control curve of NECA, a DMSO/Media control, and a single dose of Forskolin (Sigma F3917) were also included on each plate. After additions, cell plates were allowed to incubate at 37° C., 5% CO2, 90% Rh for 5.5-6 hours. After incubation, media were removed, and cell plates were washed 1×50 μL with DPBS w/o Ca & Mg (Mediatech 21-031-CV). Into dry wells, 20 μL of 1×Reporter Lysis Buffer (Promega E3971 (diluted in dH2O from 5× stock)) was added to each well and plates frozen at −20° C. overnight. For β-galactosidase enzyme colorimetric assay, plates were thawed out at room temperature and 20 μL 2× assay buffer (Promega) was added to each well. Color was allowed to develop at 37° C., 5% CO2, 90% Rh for 1-1.5 h or until reasonable signal appeared. The colorimetric reaction was stopped with the addition of 60 μL/well 1M sodium carbonate. Plates were counted at 405 nm on a SpectraMax Microplate Reader (Molecular Devices). Data was analyzed in Microsoft Excel and IC/EC50 curves were fit using a standardized macro.

SMILES strings stand for the structures.

T2 sequence (P29274 whole entry): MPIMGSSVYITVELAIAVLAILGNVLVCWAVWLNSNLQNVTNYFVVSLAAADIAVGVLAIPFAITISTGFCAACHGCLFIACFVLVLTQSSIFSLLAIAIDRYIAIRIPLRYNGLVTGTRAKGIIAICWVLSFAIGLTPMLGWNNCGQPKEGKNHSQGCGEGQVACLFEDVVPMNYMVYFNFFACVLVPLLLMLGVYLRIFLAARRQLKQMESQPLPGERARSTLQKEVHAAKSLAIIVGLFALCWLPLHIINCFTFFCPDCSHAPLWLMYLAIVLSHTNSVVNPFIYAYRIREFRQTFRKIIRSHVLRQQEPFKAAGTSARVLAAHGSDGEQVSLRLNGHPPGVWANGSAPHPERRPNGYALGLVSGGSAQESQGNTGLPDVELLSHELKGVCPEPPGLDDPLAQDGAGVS

Regarding `N#Cc1ccccc1N1CCN(c2cccc3c2-c2nc(N)nc(-c4ccccc4)c2C3=O)CC1` [Example 7, 2-[4-(2-Amino-5-oxo-4-phenyl-5H-indeno[1,2-d]pyrimidin-9-yl)-piperazin-1-yl]-benzonitrile], the IC50 in experiment [1] is 2900 nM; in experiment [2] it was 2.7 nM. In addition, the A1/A2A in experiment [2] was 1074.07.

As to `Nc1nc(-c2ccccc2)c2c(n1)-c1c(cccc1N1CCN(c3ccc(Cl)cc3)CC1)C2=O` [Example 21, 2-Amino-9-[4-(4-chloro-phenyl)-piperazin-1-yl]-4-phenyl-indeno[1,2-d]pyrimidin-5-one], the values for the IC50 in experiment [1] and in experiment [2] were 120 nM and 1.5 nM, respectively. Also, the A1/A2A in experiment [2] was 80.

The compound `Nc1nc(-c2ccccc2)c2c(n1)-c1c(cccc1N1CCN(c3ccc(F)cc3F)CC1)C2=O` [Example 6, 2-Amino-9-[4-(2,4-difluoro-phenyl)-piperazin-1-yl]-4-phenyl-indeno[1,2-d]pyrimidin-5-one] displayed an IC50 in experiment [1] of 2900 nM. In experiment [2], the IC50 came out at 2.6 nM and the A1/A2A stood at 1115.38.

Regarding `COc1ccc(N2CCN(c3cccc4c3-c3nc(N)nc(-c5ccccc5)c3C4=O)CC2)cc1` [Example 16, 2-Amino-9-[4-(4-methoxy-phenyl)-piperazin-1-yl]-4-phenyl-indeno[1,2-d]pyrimidin-5-one], in experiment [1], the IC50 stood at 25 nM. Besides, in experiment [2], the IC50 is 0.14 nM and the A1/A2A amounted to 178.571.

For the compound `NC(=O)c1ccc(C2CCN(c3cccc4c3-c3nc(N)nc(-c5ccccc5)c3C4=O)CC2)cc1` [Example 20, 4-[1-(2-Amino-5-oxo-4-phenyl-5H-indeno[1,2-d]pyrimidin-9-yl)-piperidin-4-yl]-benzamide], the values for the IC50 in experiment [1] and in experiment [2] were 150 nM and 1.5 nM, respectively. For the same compound, in experiment [2], the A1/A2A was 100.

With `COCCOc1ccc(N2CCN(c3cccc4c3-c3nc(N)nc(-c5ccccc5)c3C4=O)CC2)cc1` [Example 11, 2-Amino-9-{4-[4-(2-methoxy-ethoxy)-phenyl]-piperazin-1-yl}-4-phenyl-indeno[1,2-d]pyrimidin-5-one], the IC50 in experiment [1] is 250 nM. Besides, in experiment [2], the IC50 worked out at 0.36 nM and the A1/A2A was determined as 694.444.

On to `Nc1nc(-c2ccccc2)c2c(n1)-c1c(cccc1N1CCN(c3cccnc3)CC1)C2=O` [Example 26, 2-Amino-4-phenyl-9-(4-pyridin-3-yl-piperazin-1-yl)-indeno[1,2-d]pyrimidin-5-one], for which the IC50 in experiment [1] was determined as 31 nM. In addition, in experiment [2], the IC50 came to 0.6 nM and the A1/A2A is 51.6667.

For the compound `Nc1nc(-c2ccccc2)c2c(n1)-c1c(cccc1N1CCC(N3CCOCC3)CC1)C2=O` [Example 24, 2-Amino-9-(4-morpholin-4-yl-piperidin-1-yl)-4-phenyl-indeno[1,2-d]pyrimidin-5-one], the IC50 in experiment [1] stood at 270 nM. For the same compound, in experiment [2], the IC50 was 4.7 nM and the A1/A2A was found to be 57.4468.

Regarding `CCCN1CCN(c2cccc3c2-c2nc(N)nc(-c4ccccc4)c2C3=O)CC1` [Example 19, 2-Amino-4-phenyl-9-(4-propyl-piperazin-1-yl)-indeno[1,2-d]pyrimidin-5-one], in experiment [1], the IC50 was 1080 nM. Also, in experiment [2], the IC50 is 10.3 nM and the A1/A2A is reported as 104.858.

Compound `CS(=O)(=O)c1ccc(N2CCN(c3cccc4c3-c3nc(N)nc(-c5ccccc5)c3C4=O)CC2)cc1` [Example 15, 2-Amino-9-[4-(4-methanesulfonyl-phenyl)-piperazin-1-yl]-4-phenyl-indeno[1,2-d]pyrimidin-5-one] showed an IC50 in experiment [1] of 100 nM. In addition, in experiment [2], the IC50 stood at 0.44 nM and the A1/A2A is 227.273.

In experiment [1], `N#Cc1ccc(N2CCN(c3cccc4c3-c3nc(N)nc(-c5ccccc5)c3C4=O)CC2)cc1` [Example 3, 4-[4-(2-Amino-5-oxo-4-phenyl-5H-indeno[1,2-d]pyrimidin-9-yl)-piperazin-1-yl]-benzonitrile] displayed an IC50 of 3500 nM. Further, in experiment [2], the IC50 was determined as 0.6 nM and the A1/A2A is reported as 5833.33.

For `Nc1nc(-c2ccccc2)c2c(n1)-c1c(cccc1N1CCN(CC3CC3)CC1)C2=O` [Example 22, 2-Amino-9-(4-cyclopropylmethyl-piperazin-1-yl)-4-phenyl-indeno[1,2-d]pyrimidin-5-one], the figures for the IC50 in experiment [1] and in experiment [2] were 818 nM and 10.6 nM, respectively. Further, in experiment [2], the A1/A2A amounted to 77.5711.

As for `N#Cc1cccnc1N1CCN(c2cccc3c2-c2nc(N)nc(-c4ccccc4)c2C3=O)CC1` [Example 14, 2-[4-(2-Amino-5-oxo-4-phenyl-5H-indeno[1,2-d]pyrimidin-9-yl)-piperazin-1-yl]-nicotinonitrile], the IC50 was 1400 nM in experiment [1] and 3.2 nM in experiment [2]. Moreover, the A1/A2A in experiment [2] is on record as 437.5.

In experiment [1], `COc1ccc(C2CCN(c3cccc4c3-c3nc(N)nc(-c5ccccc5)c3C4=O)CC2)cc1` [Example 18, 2-Amino-9-[4-(4-methoxy-phenyl)-piperidin-1-yl]-4-phenyl-indeno[1,2-d]pyrimidin-5-one] had an IC50 of 600 nM. Also, in experiment [2], the IC50 was 4.5 nM and the A1/A2A is 133.333.

Regarding `Nc1nc(-c2ccccc2)c2c(n1)-c1c(cccc1N1CCN(c3ccc(C(F)(F)F)cc3)CC1)C2=O` [Example 9, 2-Amino-4-phenyl-9-[4-(4-trifluoromethyl-phenyl)-piperazin-1-yl]-indeno[1,2-d]pyrimidin-5-one], in experiment [1], the IC50 was 6200 nM. In experiment [2], the IC50 turned out to be 8.1 nM and the A1/A2A stood at 765.432.

Take `Nc1nc(-c2ccccc2)c2c(n1)-c1c(cccc1N1CCN(CCc3ccccc3)CC1)C2=O` [Example 12, 2-Amino-9-(4-phenethyl-piperazin-1-yl)-4-phenyl-indeno[1,2-d]pyrimidin-5-one]: the IC50 in experiment [1] amounted to 1050 nM. Also, in experiment [2], the IC50 was 2.27 nM and the A1/A2A is recorded as 463.233.

In the case of `Nc1nc(-c2ccccc2)c2c(n1)-c1c(cccc1N1CCC(O)(c3ccccc3)CC1)C2=O` [Example 13, 2-Amino-9-(4-hydroxy-4-phenyl-piperidin-1-yl)-4-phenyl-indeno[1,2-d]pyrimidin-5-one], in experiment [1], the IC50 amounted to 310 nM. Also, in experiment [2], the IC50 is 0.67 nM and the A1/A2A was 462.687.

For `Nc1nc(-c2ccccc2)c2c(n1)-c1c(cccc1N1CCN(c3ccc(F)cn3)CC1)C2=O` [Example 2, 2-Amino-9-[4-(5-fluoro-pyridin-2-yl)-piperazin-1-yl]-4-phenyl-indeno[1,2-d]pyrimidin-5-one], the values for the IC50 in experiment [1] and in experiment [2] were 9500 nM and 1.6 nM, respectively. Further, in experiment [2], the A1/A2A is on record as 5937.5.
